From PMC12028158, “Synthesis and In Vitro Evaluation of the Anticancer Effect of Novel Phosphonium Vindoline Derivatives” (International Journal of Molecular Sciences, 2025)
Like-named read-outs stand apart in the source and are kept apart here.

Experiments:
Type in all cases: cell-based
CCRF-CEM = assay: NCI60 five-dose screen; settings: Homo sapiens
MOLT-4 = assay: NCI60 five-dose screen; settings: Homo sapiens
A549/ATCC = assay: NCI60 five-dose screen; settings: Homo sapiens
EKVX = assay: NCI60 five-dose screen; settings: Homo sapiens
HOP-92 = assay: NCI60 five-dose screen; settings: Homo sapiens
NCI-H226 = assay: NCI60 five-dose screen; settings: Homo sapiens
NCI-H522 [1] = assay: NCI60 five-dose screen; settings: Homo sapiens
HCT-116 = assay: NCI60 five-dose screen; settings: Homo sapiens
HT29 = assay: NCI60 five-dose screen; settings: Homo sapiens, HT-29
SF-295 [2] = assay: NCI60 five-dose screen; settings: Homo sapiens
SNB-19 = assay: NCI60 five-dose screen; settings: Homo sapiens
U251 [3] = assay: NCI60 five-dose screen; settings: Homo sapiens
M14 [4] = assay: NCI60 five-dose screen; settings: Homo sapiens
UACC-62 = assay: NCI60 five-dose screen; settings: Homo sapiens
IGROV1 [5] = assay: NCI60 five-dose screen; settings: Homo sapiens, IGROV-1
OVCAR-5 = assay: NCI60 five-dose screen; settings: Homo sapiens
OVCAR-8 = assay: NCI60 five-dose screen; settings: Homo sapiens
A498 [6] = assay: NCI60 five-dose screen; settings: Homo sapiens
ACHN [7] = assay: NCI60 five-dose screen; settings: Homo sapiens
TK-10 [8] = assay: NCI60 five-dose screen; settings: Homo sapiens
T-47D = assay: NCI60 five-dose screen; settings: Homo sapiens, T47D
MDA-MB-468 [9] = assay: NCI60 five-dose screen; settings: Homo sapiens
Colon Cancer panel = assay: NCI60 five-dose screen, panel mean; settings: Homo sapiens, read-out: GI50 Mean
Prostate Cancer panel = assay: NCI60 five-dose screen, panel mean; settings: Homo sapiens, read-out: GI50 Mean
SR = assay: NCI60 one-dose screen; settings: Homo sapiens, read-out: Growth percent
NCI-H460 = assay: NCI60 one-dose screen; settings: Homo sapiens
NCI-H522 [10] = assay: NCI60 one-dose screen; settings: Homo sapiens
HCC-2998 = assay: NCI60 one-dose screen; settings: Homo sapiens
SF-268 = assay: NCI60 one-dose screen; settings: Homo sapiens
SF-295 [11] = assay: NCI60 one-dose screen; settings: Homo sapiens
U251 [12] = assay: NCI60 one-dose screen; settings: Homo sapiens
M14 [13] = assay: NCI60 one-dose screen; settings: Homo sapiens
MDA-MB-435 = assay: NCI60 one-dose screen; settings: Homo sapiens
SK-MEL-5 = assay: NCI60 one-dose screen; settings: Homo sapiens
IGROV1 [14] = assay: NCI60 one-dose screen; settings: Homo sapiens
NCI/ADR-RES = assay: NCI60 one-dose screen; settings: Homo sapiens, read-out: Growth percent
SK-OV-3 = assay: NCI60 one-dose screen; settings: Homo sapiens
786-0 = assay: NCI60 one-dose screen; settings: Homo sapiens
A498 [15] = assay: NCI60 one-dose screen; settings: Homo sapiens
ACHN [16] = assay: NCI60 one-dose screen; settings: Homo sapiens, read-out: Growth percent
SN12C = assay: NCI60 one-dose screen; settings: Homo sapiens, read-out: Growth percent
TK-10 [17] = assay: NCI60 one-dose screen; settings: Homo sapiens
DU-145 = assay: NCI60 one-dose screen; settings: Homo sapiens
MCF7 = assay: NCI60 one-dose screen; settings: Homo sapiens
MDA-MB-231/ATCC = assay: NCI60 one-dose screen; settings: Homo sapiens
HS 578T = assay: NCI60 one-dose screen; settings: Homo sapiens, read-out: Growth percent
MDA-MB-468 [18] = assay: NCI60 one-dose screen; settings: Homo sapiens

## CC[C@]12C=CCN3CC[C@@]4(c5ccc(OC)cc5N(C)[C@H]4[C@@](O)(C(=O)OC)[C@@H]1OC(=O)CCCC[P+](c1ccc(F)cc1)(c1ccc(F)cc1)c1ccc(F)cc1)[C@@H]32 [10c]
CCRF-CEM; Leukemia, read-out: GI50
  GI50: 13.6 µM
MOLT-4; MOLT-4, Leukemia, read-out: GI50
  GI50: 14.7 µM
A549/ATCC; A549/ATCC, Non-small Cell Lung Cancer, read-out: GI50
  GI50: 33.8 µM
EKVX; Non-small Cell Lung Cancer, read-out: GI50
  GI50: 21 µM
HOP-92; HOP-92, Non-small Cell Lung Cancer, read-out: GI50
  GI50: 6.32 µM
NCI-H226; NCI-H226, Non-small Cell Lung Cancer, read-out: GI50
  GI50: 27.3 µM
NCI-H522 [1]; NCI-H522, Non-small Cell Lung Cancer, read-out: GI50
  GI50: 5.44 µM
HCT-116; HCT-116, Colon Cancer, read-out: GI50
  GI50: 25.9 µM
HT29; HT29, Colon Cancer, read-out: GI50
  GI50: 15.4 µM
SF-295 [2]; SF-295, CNS Cancer, read-out: GI50
  GI50: 30.6 µM
SNB-19; SNB-19, SNB-19, CNS Cancer, read-out: GI50
  GI50: 13 µM
U251 [3]; U-251, U251, CNS Cancer, read-out: GI50
  GI50: 10.7 µM
M14 [4]; M14, Melanoma, read-out: GI50
  GI50: 14.7 µM
UACC-62; UACC-62, Melanoma, read-out: GI50
  GI50: 11.3 µM
IGROV1 [5]; IGROV1, Ovarian Cancer, read-out: GI50
  GI50: 10.8 µM
OVCAR-5; OVCAR-5, Ovarian Cancer, read-out: GI50
  GI50: 29.1 µM
OVCAR-8; OVCAR-8, Ovarian Cancer, read-out: GI50
  GI50: 29.4 µM
A498 [6]; A498, Renal Cancer, read-out: GI50
  GI50: > 100 µM
ACHN [7]; Renal Cancer, read-out: GI50
  GI50: > 100 µM
TK-10 [8]; TK-10, Renal Cancer, read-out: GI50
  GI50: 21.2 µM
T-47D; T-47D, Breast Cancer, read-out: GI50
  GI50: 11.5 µM
MDA-MB-468 [9]; MDA-MB-468, MDA-MB-468, Breast Cancer, read-out: GI50
  GI50: 2.61 µM
Colon Cancer panel; mean over Colon Cancer panel
  GI50: 26.9 µM
Prostate Cancer panel; mean over Prostate Cancer panel
  GI50: 25.9 µM
SR; 10 μM, one-dose
  activity at 10 µM: 28.8%
NCI-H460; NCI-H460, 10 μM, one-dose, read-out: Growth percent
  activity at 10 µM: 20.3%
NCI-H522 [10]; NCI-H522, 10 μM, one-dose, read-out: Growth percent
  activity at 10 µM: -11.6%
HCC-2998; HCC-2998, 10 μM, one-dose, read-out: Growth percent
  activity at 10 µM: 19.4%
SF-268; SF-268, 10 μM, one-dose, read-out: Growth percent
  activity at 10 µM: 28.1%
SF-295 [11]; SF-295, 10 μM, one-dose, read-out: Growth percent
  activity at 10 µM: 78.5%
U251 [12]; U-251, U251, 10 μM, one-dose, read-out: Growth percent
  activity at 10 µM: 13%
M14 [13]; M14, 10 μM, one-dose, read-out: Growth percent
  activity at 10 µM: 19.7%
MDA-MB-435; MDA-MB-435, 10 μM, one-dose, read-out: Growth percent
  activity at 10 µM: -16%
SK-MEL-5; SK-MEL-5, 10 μM, one-dose, read-out: Growth percent
  activity at 10 µM: -59.6%
IGROV1 [14]; IGROV-1, IGROV1, 10 μM, one-dose, read-out: Growth percent
  activity at 10 µM: -42.8%
NCI/ADR-RES; 10 μM, one-dose
  activity at 10 µM: 105%
SK-OV-3; SK-OV-3, 10 μM, one-dose, read-out: Growth percent
  activity at 10 µM: 41.4%
786-0; 786-0, 10 μM, one-dose, read-out: Growth percent
  activity at 10 µM: 87%
A498 [15]; A498, 10 μM, one-dose, read-out: Growth percent
  activity at 10 µM: 99.2%
ACHN [16]; 10 μM, one-dose
  activity at 10 µM: 103%
SN12C; 10 μM, one-dose
  activity at 10 µM: 10.6%
TK-10 [17]; TK-10, 10 μM, one-dose, read-out: Growth percent
  activity at 10 µM: 70.2%
DU-145; DU-145, 10 μM, one-dose, read-out: Growth percent
  activity at 10 µM: 36.4%
MCF7; MCF7, 10 μM, one-dose, read-out: Growth percent
  activity at 10 µM: 5.18%
MDA-MB-231/ATCC; MDA-MB-231/ATCC, 10 μM, one-dose, read-out: Growth percent
  activity at 10 µM: 2.85%
HS 578T; HS 578T, 10 μM, one-dose
  activity at 10 µM: -2.23%
MDA-MB-468 [18]; MDA-MB-468, 10 μM, one-dose, read-out: Growth percent
  activity at 10 µM: -74.6%

## CC[C@]12C=CCN3CC[C@@]4(c5ccc(OC)cc5N(C)[C@H]4[C@@](O)(C(=O)OC)[C@@H]1OC(=O)CCCC[P+](C1CCCCC1)(C1CCCCC1)C1CCCCC1)[C@@H]32 [10d]
CCRF-CEM
  GI50: 2.55 µM
MOLT-4; MOLT-4
  GI50: 1.72 µM
A549/ATCC; A549
  GI50: 3.13 µM
EKVX
  GI50: 3.13 µM
HOP-92; HOP-92
  GI50: 1.02 µM
NCI-H226; NCI-H226
  GI50: 4.41 µM
NCI-H522 [1]; NCI-H522
  GI50: 0.642 µM
HCT-116; HCT-116
  GI50: 2.94 µM
HT29
  GI50: 1.43 µM
SF-295 [2]; SF-295
  GI50: 4.4 µM
SNB-19; SNB-19
  GI50: 1.92 µM
U251 [3]; U-251
  GI50: 0.64 µM
M14 [4]; M14
  GI50: 2.2 µM
UACC-62; UACC-62
  GI50: 1.53 µM
IGROV1 [5]
  GI50: 1.36 µM
OVCAR-5; OVCAR-5
  GI50: 3.19 µM
OVCAR-8; OVCAR-8
  GI50: 2.93 µM
A498 [6]; A498
  GI50: 13.3 µM
ACHN [7]
  GI50: 16 µM
TK-10 [8]; TK-10
  GI50: 3.08 µM
T-47D
  GI50: 0.92 µM
MDA-MB-468 [9]; MDA-MB-468
  GI50: 0.378 µM
Colon Cancer panel
  GI50: 3.8 µM
Prostate Cancer panel
  GI50: 2.56 µM
SR
  activity at 10 µM: 19.5%
NCI-H460; NCI-H460, read-out: Growth percent
  activity at 10 µM: 5.27%
NCI-H522 [10]; NCI-H522, read-out: Growth percent
  activity at 10 µM: -71.8%
HCC-2998; HCC 2998, read-out: Growth percent
  activity at 10 µM: -87.8%
SF-268; SF-268, read-out: Growth percent
  activity at 10 µM: -70.5%
SF-295 [11]; SF-295, read-out: Growth percent
  activity at 10 µM: -19.6%
U251 [12]; U-251, read-out: Growth percent
  activity at 10 µM: -87.9%
M14 [13]; M14, read-out: Growth percent
  activity at 10 µM: -83.5%
MDA-MB-435; MDA-MB-435, read-out: Growth percent
  activity at 10 µM: -90.5%
SK-MEL-5; SK-MEL-5, read-out: Growth percent
  activity at 10 µM: -96.2%
IGROV1 [14]; IGROV-1, read-out: Growth percent
  activity at 10 µM: -84.7%
NCI/ADR-RES
  activity at 10 µM: 96.7%
SK-OV-3; SK-OV-3, read-out: Growth percent
  activity at 10 µM: -22.2%
786-0; 786-0, read-out: Growth percent
  activity at 10 µM: -36%
A498 [15]; A498, read-out: Growth percent
  activity at 10 µM: -0.04%
ACHN [16]
  activity at 10 µM: 18.7%
SN12C
  activity at 10 µM: -57.9%
TK-10 [17]; TK-10, read-out: Growth percent
  activity at 10 µM: -64.1%
DU-145; DU-145, read-out: Growth percent
  activity at 10 µM: 9.57%
MCF7; MCF7, read-out: Growth percent
  activity at 10 µM: -64.2%
MDA-MB-231/ATCC; MDA-MB-231, read-out: Growth percent
  activity at 10 µM: -92.8%
HS 578T; Hs-578T
  activity at 10 µM: -35%
MDA-MB-468 [18]; MDA-MB-468, read-out: Growth percent
  activity at 10 µM: -79%
